Measured values as given in publication PMC12795810 (Nature Communications, 2025).

Columns and labels:
[1] = when combined with letrozole/abemaciclib
[2] = cited from earlier work

Structure (SMILES): CN(C)C(=N)N=C(N)N [metformin]
- increase in metformin exposure [1]: more than 3 fold
- recommended maximum concentration for safe clinical use [2]: 2500 µg/L
